The nature of data set [1]: Pharmacokinetics in mice, single gavage. In kind it is in vivo, CD-1 mouse (male). On the procedure:
Experimental purpose: To test the pharmacokinetics of the compound in mice
CD-1 mouse (male), vehicle (0.5% (w/v) methylcellulose 0.5% (v/v) Tween 80 aqueous solution), trifluoroacetate of compound 0027.
The vehicle was an aqueous solution of 0.5% (w/v) methylcellulose and 0.5% (v/v) Tween 80, and it was prepared according to the following procedure:
Formulation of Preparations for Intragastric Administration: […]
a. An appropriate amount of the test product was weighed and put into a glass bottle;
b. 70% volume of vehicle (0.5% (w/v) methyl cellulose 0.5% (v/v) Tween 80 aqueous solution) was added;
c. The preparation was stirred until it was visually homogeneous, and subjected to ultrasound in water bath as needed;
e. Make up the remaining volume of 0.5% methylcellulose+0.5% Tween 80, and the mixture was stirred until being visually homogeneous.
Animals in groups 1 and 2 were administrated 5 mg/mL and 30 mg/mL compounds by single gavage, with a dose volume of 10 mL/kg.
The body weight of the animals was weighed before administration, and the administration volume was calculated based on the body weight.
Whole blood samples (30 μL) were collected at the prescribed time (0.25, 0.5, 1, 2, 4, 6, 8, 24 h) through saphenous vein blood collection, and the actual blood collection time was recorded in the test record. The acceptable error of the collection time point was a time point within 1 hour of the administration ±1 minute, and the acceptable error of other time points is a theoretical time ±5%.
All blood samples were immediately transferred to labeled commercial centrifuge tubes containing K2-EDTA. After being collected, the blood samples were centrifuged at 3200 rpm for 10 minutes at 4° C. to aspirate the supernatant plasma, which was quickly placed in dry ice, kept at −20° C. or a lower temperature for LC-MS/MS analysis. The pharmacokinetic parameters were calculated.

The subject of the next data set is wild-type FGFR. Put plainly: Inhibitory activity of wild-type kinase in vitro (overall conclusion). Particulars: conclusion in words. In kind it is biochemical, human. The protocol: The IC50 value was determined using ^33P isotope-labeled kinase activity test (Reaction Biology Corp) to evaluate the inhibitory ability of the compounds to be tested on human FGFR4 and VEGFR2.
Buffer conditions: 20 mM 4-(2-hydroxyethyl)-1-piperazineethanesulfonic acid (Hepes) (pH 7.5), 10 mM MgCl2, 1 mM ethylene glycol-bis-(2-aminoethyl ether)tetra acetic acid (EGTA), 0.02% polyoxyethylene lauryl ether (Brij35), 0.02 mg/ml bovine serum albumin (BSA), 0.1 mM sodium vanadate (Na3VO4), 2 mM dithiothreitol (DTT), 1% DMSO.
Experimental steps: At room temperature, the compounds to be tested were dissolved in DMSO to prepare a 10 mM solution for use. The substrate was dissolved in the freshly prepared buffer, and the kinase to be tested was added thereto and mixed well. The DMSO solution in which the compounds to be tested were dissolved was added to the above-mentioned homogeneous reaction solution using acoustic technology (Echo 550). The compound concentration in the reaction solution is 10 μM, 3.33 μM, 1.11 μM, 0.370 μM, 0.123 μM, 41.2 nM, 13.7 nM, 4.57 nM, 1.52 nM, 0.508 nM, or 10 μM, 2.50 μM, 0.62 μM, 0.156 μM, 39.1 nM, 9.8 nM, 2.4 nM, 0.61 nM, 0.15 nM, 0.038 nM. […] After the filter paper was repeatedly washed with 0.75% phosphoric acid solution, the radioactivity of the phosphorylated substrate remaining on the filter paper was measured. […]

The values that follow come from patent US11535609B2, “Pyrazine-2(1H)-ketone compound preparation method” (ZHANGZHOU PIEN TZE HUANG PHARMACEUTICAL CO., LTD., priority 2019, dated 2022).

The Tmax is the time from dosing to the highest level. Consider `COc1cc(OC)c(Cl)c(-c2nc(-c3nc(-c4cn(C)nc4C)cnc3N)cn(C)c2=O)c1`, for which, in data set [1] (CD-1 mouse, gavage, 50 mpk), the AUC0-inf was determined as 95.847 µM·h, the AUC0-last was determined as 85.826 µM·h, the MRT0-inf was found to be 5.39 h and the MRT0-last is reported as 4.33 h. Besides, in data set [1] (CD-1 mouse, gavage, 50 mpk), the T1/2 was 2.46 h and the time to peak (Tmax) worked out at 1.00 h. Also, in data set [1] (CD-1 mouse, gavage, 300 mpk), the AUC0-last came out at 699.413 µM·h, the MRT0-last is 11.1 h and the Tmax came to 7.00 h. Moreover, the “pharmacokinetic indexes in mice” value in data set [1] (conclusion in words) was “good pharmacokinetic indexes”. In the data set with wild-type FGFR, the “inhibitory activity against wild-type FGFR” value is “good inhibitory activity”; the “selectivity towards FGFR2 and FGFR3 compared to FGFR1 and FGFR4” value is on record as “relative high selectivity”.
